Reference: publication PMC4176091, “Novel expression of Haemonchus contortus vaccine candidate aminopeptidase H11 using the free-living nematode Caenorhabditis elegans” (Veterinary Research, 2013)

Legend:
Experiment in all cases: aminopeptidase assay, absorbance at […] nm
Assay type in all cases: biochemical
Conditions in all cases: 0.5 mM substrate; 50 mM NaPO4, pH 5.5 and 7; 2 h at 37 °C then overnight at room temperature
H11 (rH11, isoform H11) = target: T1, H11 (rH11, isoform H11) (Haemonchus contortus, UniProt Q10737)
T1 construct: soluble, expressed in C. elegans; N-terminal transmembrane domain (35 aa) replaced by Hmcp-6 signal peptide; C-terminal 10 aa His tag; cobalt resin

rH11-1 = target: T2, rH11-1 (Haemonchus contortus, UniProt Q9U5P6)
T2 construct: gene h11-1; soluble, expressed in C. elegans; N-terminal transmembrane domain (35 aa) replaced by Hmcp-6 signal peptide; C-terminal 10 aa His tag; cobalt resin

rH11-5 = target: T3, rH11-5 (Haemonchus contortus, UniProt V5K5H8)
T3 construct: soluble, expressed in C. elegans; N-terminal transmembrane domain (35 aa) replaced by Hmcp-6 signal peptide; C-terminal 10 aa His tag; cobalt resin

rH11-4 = target: T4, rH11-4 (Haemonchus contortus, UniProt Q967C6)
T4 construct: gene h11-4; soluble, expressed in C. elegans; N-terminal transmembrane domain (35 aa) replaced by Hmcp-6 signal peptide; C-terminal 10 aa His tag; N-glycosylated; cobalt resin
T4 sequence (Q967C6 entry or part of it): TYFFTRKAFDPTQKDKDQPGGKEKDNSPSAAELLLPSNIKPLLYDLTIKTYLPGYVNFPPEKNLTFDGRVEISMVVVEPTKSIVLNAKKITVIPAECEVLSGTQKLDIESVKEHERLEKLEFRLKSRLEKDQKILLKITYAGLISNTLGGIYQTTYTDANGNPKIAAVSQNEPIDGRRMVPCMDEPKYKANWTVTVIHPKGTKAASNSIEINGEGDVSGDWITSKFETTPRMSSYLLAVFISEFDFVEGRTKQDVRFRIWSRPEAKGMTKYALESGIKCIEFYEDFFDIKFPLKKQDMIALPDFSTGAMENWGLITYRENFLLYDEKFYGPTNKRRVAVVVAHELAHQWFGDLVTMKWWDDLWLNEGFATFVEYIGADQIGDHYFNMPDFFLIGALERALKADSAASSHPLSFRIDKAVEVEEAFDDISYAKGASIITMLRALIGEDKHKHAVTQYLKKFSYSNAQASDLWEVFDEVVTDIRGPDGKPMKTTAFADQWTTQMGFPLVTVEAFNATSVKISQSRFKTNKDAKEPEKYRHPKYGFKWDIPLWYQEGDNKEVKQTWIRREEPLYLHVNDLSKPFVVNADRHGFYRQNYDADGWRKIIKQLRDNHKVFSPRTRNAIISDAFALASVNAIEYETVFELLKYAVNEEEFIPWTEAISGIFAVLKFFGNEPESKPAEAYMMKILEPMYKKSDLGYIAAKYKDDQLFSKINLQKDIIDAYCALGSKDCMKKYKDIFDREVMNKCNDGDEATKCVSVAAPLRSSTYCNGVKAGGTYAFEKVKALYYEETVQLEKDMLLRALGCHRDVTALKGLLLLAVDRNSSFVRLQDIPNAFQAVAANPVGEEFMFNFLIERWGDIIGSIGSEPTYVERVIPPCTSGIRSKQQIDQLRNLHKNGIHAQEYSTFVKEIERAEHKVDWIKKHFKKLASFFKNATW

T1 sequence (Q10737 36-972): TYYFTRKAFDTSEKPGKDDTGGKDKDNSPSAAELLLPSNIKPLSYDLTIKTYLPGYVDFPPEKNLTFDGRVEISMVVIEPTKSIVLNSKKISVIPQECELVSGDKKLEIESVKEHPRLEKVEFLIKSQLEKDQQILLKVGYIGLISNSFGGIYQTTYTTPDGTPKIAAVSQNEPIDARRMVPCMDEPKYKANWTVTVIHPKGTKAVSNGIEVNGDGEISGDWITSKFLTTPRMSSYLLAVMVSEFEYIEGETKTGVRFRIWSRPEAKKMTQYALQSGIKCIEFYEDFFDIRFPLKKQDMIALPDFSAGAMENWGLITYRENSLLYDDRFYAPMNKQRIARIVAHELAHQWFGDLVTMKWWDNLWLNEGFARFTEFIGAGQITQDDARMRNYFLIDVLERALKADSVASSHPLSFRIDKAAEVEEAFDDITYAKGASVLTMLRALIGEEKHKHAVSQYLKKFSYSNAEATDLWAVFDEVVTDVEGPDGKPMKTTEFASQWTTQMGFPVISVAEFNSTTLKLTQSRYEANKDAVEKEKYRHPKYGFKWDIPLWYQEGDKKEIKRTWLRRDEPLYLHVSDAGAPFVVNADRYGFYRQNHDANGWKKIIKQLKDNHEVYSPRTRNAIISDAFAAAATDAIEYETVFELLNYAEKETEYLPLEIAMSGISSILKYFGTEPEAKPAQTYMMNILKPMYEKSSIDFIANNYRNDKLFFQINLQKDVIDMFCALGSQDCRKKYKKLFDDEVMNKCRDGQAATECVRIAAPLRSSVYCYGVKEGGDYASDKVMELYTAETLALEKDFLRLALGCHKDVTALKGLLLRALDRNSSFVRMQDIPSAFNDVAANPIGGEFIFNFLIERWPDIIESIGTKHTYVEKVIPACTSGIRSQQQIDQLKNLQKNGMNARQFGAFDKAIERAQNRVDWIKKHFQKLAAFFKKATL
T2 sequence (Q9U5P6 entry or part of it): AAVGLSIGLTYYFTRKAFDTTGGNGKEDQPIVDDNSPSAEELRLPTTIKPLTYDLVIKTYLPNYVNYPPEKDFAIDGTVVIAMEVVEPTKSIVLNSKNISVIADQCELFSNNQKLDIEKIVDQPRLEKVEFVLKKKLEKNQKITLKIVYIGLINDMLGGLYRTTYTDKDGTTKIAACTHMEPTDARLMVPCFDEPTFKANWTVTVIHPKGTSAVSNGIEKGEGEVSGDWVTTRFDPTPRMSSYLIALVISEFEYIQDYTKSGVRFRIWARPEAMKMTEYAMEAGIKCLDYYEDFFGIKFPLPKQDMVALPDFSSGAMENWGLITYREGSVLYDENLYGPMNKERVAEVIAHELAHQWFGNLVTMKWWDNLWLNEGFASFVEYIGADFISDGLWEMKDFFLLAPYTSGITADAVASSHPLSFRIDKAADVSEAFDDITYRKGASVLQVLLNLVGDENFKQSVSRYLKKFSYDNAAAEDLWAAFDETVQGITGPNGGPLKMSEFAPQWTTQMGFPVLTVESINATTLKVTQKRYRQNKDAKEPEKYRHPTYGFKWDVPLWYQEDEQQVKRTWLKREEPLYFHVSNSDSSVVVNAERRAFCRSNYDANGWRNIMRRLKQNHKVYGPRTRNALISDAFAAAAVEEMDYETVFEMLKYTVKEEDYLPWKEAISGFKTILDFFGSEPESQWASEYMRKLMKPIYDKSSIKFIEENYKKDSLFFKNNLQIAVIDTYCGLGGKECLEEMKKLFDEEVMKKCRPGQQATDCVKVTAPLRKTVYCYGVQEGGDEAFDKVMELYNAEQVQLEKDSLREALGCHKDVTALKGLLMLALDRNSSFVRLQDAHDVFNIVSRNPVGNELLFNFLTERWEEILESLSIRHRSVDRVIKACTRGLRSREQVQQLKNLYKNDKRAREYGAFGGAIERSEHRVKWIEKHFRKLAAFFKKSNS
T3 sequence (V5K5H8 entry or part of it): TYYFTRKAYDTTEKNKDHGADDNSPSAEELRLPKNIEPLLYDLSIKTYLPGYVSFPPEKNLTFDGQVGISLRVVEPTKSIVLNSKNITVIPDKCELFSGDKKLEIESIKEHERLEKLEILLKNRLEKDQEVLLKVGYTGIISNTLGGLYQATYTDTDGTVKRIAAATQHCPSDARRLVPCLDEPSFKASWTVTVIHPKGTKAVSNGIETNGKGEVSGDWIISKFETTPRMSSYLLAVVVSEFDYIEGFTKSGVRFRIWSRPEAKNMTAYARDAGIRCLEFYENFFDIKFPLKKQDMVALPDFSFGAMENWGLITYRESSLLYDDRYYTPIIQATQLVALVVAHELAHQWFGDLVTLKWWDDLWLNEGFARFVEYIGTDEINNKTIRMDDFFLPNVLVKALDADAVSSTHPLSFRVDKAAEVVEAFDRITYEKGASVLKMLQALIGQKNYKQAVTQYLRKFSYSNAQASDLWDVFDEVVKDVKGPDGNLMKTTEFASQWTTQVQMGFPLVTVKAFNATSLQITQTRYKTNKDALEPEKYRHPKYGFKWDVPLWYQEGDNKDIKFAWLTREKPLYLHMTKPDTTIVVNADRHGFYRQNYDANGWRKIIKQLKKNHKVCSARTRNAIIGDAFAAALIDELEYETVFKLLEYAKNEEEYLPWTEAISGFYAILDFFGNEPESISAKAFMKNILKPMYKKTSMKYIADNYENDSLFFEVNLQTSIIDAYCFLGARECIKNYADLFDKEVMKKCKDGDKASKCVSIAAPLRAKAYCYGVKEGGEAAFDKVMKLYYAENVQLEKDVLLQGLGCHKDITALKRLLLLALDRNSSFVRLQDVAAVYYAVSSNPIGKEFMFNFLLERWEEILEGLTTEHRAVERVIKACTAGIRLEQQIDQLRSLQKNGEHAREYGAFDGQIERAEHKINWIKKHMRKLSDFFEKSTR

CC(C)C[C@H](N)C(=O)Nc1ccc([N+](=O)[O-])cc1 [L-leucine p-nitroanilide]
aminopeptidase assay, absorbance at 405 nm (H11 (rH11, isoform H11)): rH11-4 and rH11-5 showing greater activity than H11 and H11-1 isoforms
aminopeptidase assay, absorbance at 405 nm (rH11-1): rH11-4 and rH11-5 showing greater activity than H11 and H11-1 isoforms
aminopeptidase assay, absorbance at 405 nm (rH11-5): rH11-4 and rH11-5 showing greater activity than H11 and H11-1 isoforms
aminopeptidase assay, absorbance at 405 nm (rH11-4): rH11-4 and rH11-5 showing greater activity than H11 and H11-1 isoforms
